Results: patent US9096518B2, “Substituted hydroxamic acids and uses thereof” (Millennium Pharmaceuticals, Inc., priority 2009, dated 2015)

biological target: T1, purified human HDAC6 (Homo sapiens, UniProt Q9UBN7); assay: HDAC6 Enzyme Assay; assay type: biochemical
T1 construct: purchased BPS Bioscience 5006
T1 sequence (Q9UBN7 1-1215): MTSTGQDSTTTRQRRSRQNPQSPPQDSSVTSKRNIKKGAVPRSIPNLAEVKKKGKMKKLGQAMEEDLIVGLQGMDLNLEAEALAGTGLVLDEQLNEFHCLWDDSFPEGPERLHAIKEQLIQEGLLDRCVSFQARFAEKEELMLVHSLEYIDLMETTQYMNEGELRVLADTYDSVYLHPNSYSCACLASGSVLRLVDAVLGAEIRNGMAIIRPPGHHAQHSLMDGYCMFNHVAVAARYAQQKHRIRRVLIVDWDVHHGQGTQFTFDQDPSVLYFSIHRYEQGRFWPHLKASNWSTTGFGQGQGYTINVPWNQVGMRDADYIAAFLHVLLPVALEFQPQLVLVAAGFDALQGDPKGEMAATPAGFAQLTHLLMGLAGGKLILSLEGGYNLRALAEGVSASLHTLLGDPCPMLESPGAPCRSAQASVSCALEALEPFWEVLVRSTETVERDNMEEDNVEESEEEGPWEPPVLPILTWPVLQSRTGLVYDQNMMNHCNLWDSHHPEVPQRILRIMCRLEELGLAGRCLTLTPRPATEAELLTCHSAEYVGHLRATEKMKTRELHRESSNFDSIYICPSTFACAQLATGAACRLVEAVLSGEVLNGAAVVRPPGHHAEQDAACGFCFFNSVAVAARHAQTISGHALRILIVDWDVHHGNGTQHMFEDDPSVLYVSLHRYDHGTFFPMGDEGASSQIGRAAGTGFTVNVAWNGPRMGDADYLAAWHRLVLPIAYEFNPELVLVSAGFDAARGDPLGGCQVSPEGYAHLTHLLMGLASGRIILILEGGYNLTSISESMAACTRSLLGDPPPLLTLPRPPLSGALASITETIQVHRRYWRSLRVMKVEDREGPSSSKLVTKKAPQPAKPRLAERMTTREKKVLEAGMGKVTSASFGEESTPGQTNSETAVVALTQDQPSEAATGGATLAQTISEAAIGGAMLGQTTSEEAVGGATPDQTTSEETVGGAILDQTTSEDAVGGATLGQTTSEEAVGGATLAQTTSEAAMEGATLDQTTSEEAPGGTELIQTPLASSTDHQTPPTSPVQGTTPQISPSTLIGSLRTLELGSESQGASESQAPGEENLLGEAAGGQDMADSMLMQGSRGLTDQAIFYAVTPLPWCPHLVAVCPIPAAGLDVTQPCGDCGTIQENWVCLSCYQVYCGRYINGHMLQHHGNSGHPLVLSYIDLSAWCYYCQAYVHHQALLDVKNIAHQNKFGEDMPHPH
Description: To measure the inhibition of HDAC6 activity, purified human HDAC6 (BPS Bioscience; Cat. No. 5006) is incubated with substrate Ac-Arg-Gly-Lys(Ac)-AMC peptide (Bachem Biosciences; Cat. No. I-1925) for 1 hour at 30° C. in the presence of test compounds or vehicle DMSO control. The reaction is stopped with the HDAC inhibitor trichostatin A (Sigma; Cat. No. T8552) and the amount of Arg-Gly-Lys-AMC generated is quantitated by digestion with trypsin (Sigma; Cat. No. T1426) and subsequent measurement of the amount of AMC released using a fluorescent plate reader (Pherastar; BMG Technologies) set at Ex 340 nm and Em 460 nm. Concentration response curves are generated by calculating the fluorescence increase in test compound-treated samples relative to DMSO-treated controls, and enzyme inhibition (IC50) values are determined from those curves.

Row | IC50 [nM] | SMILES
1 | 50 to 100 | COc1cccc(CC(=O)N2CCc3cc(C(=O)NO)ccc3C2)c1 [Compound 34, N-hydroxy-2-[(3-methoxyphenyl)acetyl]-1,2,3,4-tetrahydroisoquinoline-6-carboxamide]
2 | 100 to 500 | CC(C)c1ccc(CC(=O)N2CCc3cc(C(=O)NO)ccc3C2)cc1 [Compound 35, N-hydroxy-2-[(4-isopropylphenyl)acetyl]-1,2,3,4-tetrahydroisoquinoline-6-carboxamide]
3 | 100 to 500 | CC(=O)N1CCC(C(=O)N2CCc3cc(C(=O)NO)ccc3C2)CC1 [Compound 36, 2-[(1-acetylpiperidin-4-yl)carbonyl]-N-hydroxy-1,2,3,4-tetrahydroisoquinoline-6-carboxamide]
4 | 50 to 100 | CCCCS(=O)(=O)N1CCc2cc(C(=O)NO)ccc2C1 [Compound 38, 2-(butylsulfonyl)-N-hydroxy-1,2,3,4-tetrahydroisoquinoline-6-carboxamide]
5 | < 50 | COc1ccc(S(=O)(=O)N2CCc3cc(C(=O)NO)ccc3C2)cc1 [Compound 49, N-hydroxy-2-[(4-methoxyphenyl)sulfonyl]-1,2,3,4-tetrahydroisoquinoline-6-carboxamide]
6 | 100 to 500 | O=C(NO)c1ccc2c(c1)CCN(S(=O)(=O)c1ccc(F)cc1)C2 [Compound 50, 2-[(4-fluorophenyl)sulfonyl]-N-hydroxy-1,2,3,4-tetrahydroisoquinoline-6-carboxamide]
7 | 50 to 100 | Cc1n[nH]c(C)c1S(=O)(=O)N1CCc2cc(C(=O)NO)ccc2C1 [Compound 54, 2-[(3,5-dimethyl-1H-pyrazol-4-yl)sulfonyl]-N-hydroxy-1,2,3,4-tetrahydroisoquinoline-6-carboxamide]
8 | 50 to 100 | O=C(NO)c1ccc2c(c1)CCN(CCc1cccc3ccccc13)C2 [Compound 58, N-hydroxy-2-[2-(1-naphthyl)ethyl]-1,2,3,4-tetrahydroisoquinoline-6-carboxamide]
9 | 100 to 500 | O=C(NO)c1ccc2c(c1)CCN(Cc1ccc(-n3cncn3)cc1)C2 [Compound 59, N-hydroxy-2-[4-(1H-1,2,4-triazol-1-yl)benzyl]-1,2,3,4-tetrahydroisoquinoline-6-carboxamide]
10 | 50 to 100 | O=C(NO)c1ccc2c(c1)CCN(Cc1ccc3ccccc3n1)C2 [Compound 60, N-hydroxy-2-(quinolin-2-ylmethyl)-1,2,3,4-tetrahydroisoquinoline-6-carboxamide]
11 | 100 to 500 | O=C(NO)c1ccc2c(c1)CCN(CCCc1ccccc1)C2 [Compound 62, N-hydroxy-2-(3-phenylpropyl)-1,2,3,4-tetrahydroisoquinoline-6-carboxamide]
12 | 100 to 500 | O=C(NO)c1ccc2c(c1)CCN(C/C=C/c1ccccc1)C2 [Compound 64, N-hydroxy-2-[(2E)-3-phenylprop-2-en-1-yl]-1,2,3,4-tetrahydroisoquinoline-6-carboxamide]

Further lines, the compound ahead of its results:

Row | SMILES | IC50 [nM]
13 | Cc1cc(C(F)(F)F)nn1CC(=O)N1CCc2cc(C(=O)NO)ccc2C1 [Compound 37, N-hydroxy-2-{[5-methyl-3-(trifluoromethyl)-1H-pyrazol-1-yl]acetyl}-1,2,3,4-tetrahydroisoquinoline-6-carboxamide] | 100 to 500
14 | O=C(NO)c1ccc2c(c1)CCN(S(=O)(=O)Cc1ccccc1)C2 [Compound 39, 2-(benzylsulfonyl)-N-hydroxy-1,2,3,4-tetrahydroisoquinoline-6-carboxamide] | 50 to 100
15 | CCCS(=O)(=O)N1CCc2cc(C(=O)NO)ccc2C1 [Compound 40, N-hydroxy-2-(propylsulfonyl)-1,2,3,4-tetrahydroisoquinoline-6-carboxamide] | 100 to 500
16 | CC(C)c1ccc(S(=O)(=O)N2CCc3cc(C(=O)NO)ccc3C2)cc1 [Compound 42, N-hydroxy-2-[(4-isopropylphenyl)sulfonyl]-1,2,3,4-tetrahydroisoquinoline-6-carboxamide] | 100 to 500
17 | COc1ccc(-c2ccc(S(=O)(=O)N3CCc4cc(C(=O)NO)ccc4C3)cc2)cc1 [Compound 43, N-hydroxy-2-[(4′-methoxybiphenyl-4-yl)sulfonyl]-1,2,3,4-tetrahydroisoquinoline-6-carboxamide] | 50 to 100
18 | CC(C)(C)c1ccc(S(=O)(=O)N2CCc3cc(C(=O)NO)ccc3C2)cc1 [Compound 44, 2-[(4-tert-butylphenyl)sulfonyl]-N-hydroxy-1,2,3,4-tetrahydroisoquinoline-6-carboxamide] | 50 to 100
19 | Cc1ccc(S(=O)(=O)N2CCc3cc(C(=O)NO)ccc3C2)cc1 [Compound 45, N-hydroxy-2-[(4-methylphenyl)sulfonyl]-1,2,3,4-tetrahydroisoquinoline-6-carboxamide] | 50 to 100
20 | O=C(NO)c1ccc2c(c1)CCN(S(=O)(=O)c1ccc3ccccc3c1)C2 [Compound 47, N-hydroxy-2-(2-naphthylsulfonyl)-1,2,3,4-tetrahydroisoquinoline-6-carboxamide] | < 50
21 | O=C(NO)c1ccc2c(c1)CCN(S(=O)(=O)c1cccc(-c3ccc(F)cc3)c1)C2 [Compound 48, 2-[(4′-fluorobiphenyl-3-yl)sulfonyl]-N-hydroxy-1,2,3,4-tetrahydroisoquinoline-6-carboxamide] | 50 to 100
22 | Cc1nc(S(=O)(=O)N2CCc3cc(C(=O)NO)ccc3C2)cn1C [Compound 51, 2-[(1,2-dimethyl-1H-imidazol-4-yl)sulfonyl]-N-hydroxy-1,2,3,4-tetrahydroisoquinoline-6-carboxamide] | 100 to 500
23 | O=C(NO)c1ccc2c(c1)CCN(S(=O)(=O)c1ccc(C(F)(F)F)cc1)C2 [Compound 52, N-hydroxy-2-{[4-(trifluoromethyl)phenyl]sulfonyl}-1,2,3,4-tetrahydroisoquinoline-6-carboxamide] | 50 to 100
24 | Cc1noc(C)c1S(=O)(=O)N1CCc2cc(C(=O)NO)ccc2C1 [Compound 53, 2-[(3,5-dimethylisoxazol-4-yl)sulfonyl]-N-hydroxy-1,2,3,4-tetrahydroisoquinoline-6-carboxamide] | 100 to 500
25 | O=C(NO)c1ccc2c(c1)CCN(S(=O)(=O)c1ccc(Oc3ccncc3)cc1)C2 [Compound 55, N-hydroxy-2-{[4-(pyridin-4-yloxy)phenyl]sulfonyl}-1,2,3,4-tetrahydroisoquinoline-6-carboxamide] | 100 to 500
26 | O=C(NO)c1ccc2c(c1)CCN(S(=O)(=O)CC(c1ccccc1)c1ccccc1)C2 [Compound 56, 2-[(2,2-diphenylethyl)sulfonyl]-N-hydroxy-1,2,3,4-tetrahydroisoquinoline-6-carboxamide] | 100 to 500
27 | O=C(NO)c1ccc2c(c1)CCN(Cc1ccccc1)C2 [Compound 57, 2-benzyl-N-hydroxy-1,2,3,4-tetrahydroisoquinoline-6-carboxamide] | 50 to 100
28 | O=C(NO)c1ccc2c(c1)CCN(Cc1ccc(OC(F)(F)F)cc1)C2 [Compound 61, N-hydroxy-2-[4-(trifluoromethoxy)benzyl]-1,2,3,4-tetrahydroisoquinoline-6-carboxamide] | 100 to 500
29 | O=C(NO)c1ccc2c(c1)CCN(CCOc1ccccc1)C2 [Compound 63, N-hydroxy-2-(2-phenoxyethyl)-1,2,3,4-tetrahydroisoquinoline-6-carboxamide] | 100 to 500
30 | O=C(NO)c1ccc2c(c1)CCN(Cc1ccc3nonc3c1)C2 [Compound 65, 2-(2,1,3-benzoxadiazol-5-ylmethyl)-N-hydroxy-1,2,3,4-tetrahydroisoquinoline-6-carboxamide] | 100 to 500
31 | O=C(NO)c1ccc2c(c1)CCN(Cc1ccc(C(F)(F)F)cc1)C2 [Compound 66, N-hydroxy-2-[4-(trifluoromethyl)benzyl]-1,2,3,4-tetrahydroisoquinoline-6-carboxamide] | 100 to 500
32 | O=C(NO)c1ccc2c(c1)CCN(CCCOc1ccccc1)C2 [Compound 67, N-hydroxy-2-(3-phenoxypropyl)-1,2,3,4-tetrahydroisoquinoline-6-carboxamide] | 100 to 500
